Source: patent publication US10774046B2, “Inhibitors for the treatment of cancer and related methods” (UNIVERSITY OF LOUISVILLE RESEARCH FOUNDATION, INC., priority 2017, dated 2020)

Test system: H460 cells
Experiment: proliferation, viable cell count by trypan blue exclusion
Format: cell-based, human
Description: Cells were incubated in 20% trypan blue (Sigma) for 5 minutes. Cells excluding trypan blue were counted using a standard hemocytometer (Hausser Scientific) to determine total numbers of viable cells. Data are expressed as mean±SD of three experiments.
H460 non-small cell lung cancer cells were plated in 24 well plates and exposed to increasing concentrations of the indicated inhibitors of Formula IV (FBR1-02 corresponds to
DMSO was used as vehicle. After 24, 48 and 72 hours of exposure, cells were detached and viable cells were counted by Trypan blue exclusion (representative counts at 48 hours shown).
Method: H460 cells were plated in 24 well plates and exposed to increasing concentrations of FB4-31 to FB4-36 and 5MPN. DMSO was used as a vehicle. After 24, 48 and 72 hours of exposure, cells were detached, and viable cells were counted by Trypan blue exclusion (representative counts at 72 hours shown).

## COc1cccc2c(NCCCCCO[N+](=O)[O-])ccnc12 [5MPN, 5-[(8-methoxyquinolin-4-yl)amino]pentyl nitrate]
H460, 24-72 hours
  cell proliferation: reduction in cell proliferation
H460, over 48 hours
  growth: dose-dependent reduction in growth
H460 transfected with PFKFB4, 10 μM 5MPN, 24 hours
  effect of overexpression of PFKFB4 on anti-proliferative effect: protected
